# US7767659B2, “Synthesis of naturally occurring ecteinascidins and related compounds” (Pharma Mar, S.A., priority 2002, dated 2010)
# Columns and labels:
# HT-29 = assay: cells; conditions: Homo sapiens, HT-29, 48 h; for GI50: read-out: HT29 GI50; for CC50: read-out: HT29 LC50; for IC (TGI): read-out: HT29 TGI
# Method in brief: (§1)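 Colorimetric SRB read (490 nm) on triplicate wells after 48 h at 37 °C, 5% CO2. Dose range 10 to 10^−8 μg/ml; 5×10^3 cells/well pre-attached 18 h.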
# A-549 = assay: cells; conditions: Homo sapiens, A549, 48 h; for GI50: read-out: A549 GI50; for CC50: read-out: A549 LC50; for IC (TGI): read-out: A549 TGI
# Method in brief: as §1
# LoVo = assay: cells; conditions: Homo sapiens, LoVo, 48 h; for GI50: read-out: LOVO GI50; for CC50: read-out: LOVO LC50; for IC (TGI): read-out: LOVO TGI
# Method in brief: as §1
# SK-MEL-28 = assay: Inhibition of cells growth by colorimetric assay (SRB); conditions: Homo sapiens, SK-MEL-28, 48 h; for GI50: read-out: MEL-28 GI50; for CC50: read-out: MEL-28 LC50; for IC (TGI): read-out: MEL-28 TGI
# Method in brief: as §1
# IGROV-1 = assay: as above; conditions: Homo sapiens, IGROV-1, 48 h; for GI50: read-out: IGROV GI50; for CC50: read-out: IGROV LC50; for IC (TGI): read-out: IGROV TGI
# Method in brief: as §1
# SK-BR-3 = assay: as above; conditions: Homo sapiens, SK-BR-3, 48 h; for GI50: read-out: SK-BR3 GI50; for CC50: read-out: SK-BR3 LC50; for IC (TGI): read-out: SK-BR3 TGI
# Method in brief: as §1
# DU-145 = assay: as above; conditions: Homo sapiens, DU-145, 48 h; for GI50: read-out: DU145 GI50; for CC50: read-out: DU145 LC50; for IC (TGI): read-out: DU145 TGI
# Method in brief: as §1
# HeLa-APL = assay: as above; conditions: Homo sapiens, 48 h; for GI50: read-out: HELA-APL GI50; for CC50: read-out: HELA-APL LC50; for IC (TGI): read-out: HELA-APL TGI
# Method in brief: as §1
# K-562 = assay: as above; conditions: Homo sapiens, K562, 48 h; for GI50: read-out: K562 GI50; for CC50: read-out: K562 LC50; for IC (TGI): read-out: K562 TGI
# Method in brief: as §1
# PANC-1 = assay: as above; conditions: Homo sapiens, PANC-1, 48 h; for GI50: read-out: PANC-1 GI50; for CC50: read-out: PANC-1 LC50; for IC (TGI): read-out: PANC-1 TGI
# Method in brief: as §1
# HeLa = assay: as above; conditions: Homo sapiens, HeLa, 48 h; for GI50: read-out: HELA GI50; for CC50: read-out: HELA LC50; for IC (TGI): read-out: HELA TGI
# Method in brief: as §1
# LNCaP = assay: as above; conditions: Homo sapiens, LNCaP, 48 h; for GI50: read-out: LNCAP GI50; for CC50: read-out: LNCAP LC50; for IC (TGI): read-out: LNCAP TGI
# Method in brief: as §1
# IGROV-ET = assay: as above; conditions: Homo sapiens, 48 h; for GI50: read-out: IGROV-ET GI50; for CC50: read-out: IGROV-ET LC50; for IC (TGI): read-out: IGROV-ET TGI
# Method in brief: as §1
# LoVo-Dox = assay: as above; conditions: Homo sapiens, 48 h; for GI50: read-out: LOVO-DOX GI50; for CC50: read-out: LOVO-DOX LC50; for IC (TGI): read-out: LOVO-DOX TGI
# Method in brief: as §1
smiles,measurement,setting,value
COc1c(C)cc2c(c1O)[C@H]1N[C@@H](C2)[C@H](O)N2C1[C@@H]1SCC(=O)C(=O)OC[C@H]2c2c3c(c(C)c(OC(C)=O)c21)OCO3 (stereo partly drawn) [compound 43],GI50,HT-29,0.0242 µM
same,CC50,HT-29,16.7 µM
same,IC (TGI),HT-29,0.19 µM
same,GI50,A-549,0.0261 µM
same,CC50,A-549,0.148 µM
same,IC (TGI),A-549,0.0621 µM
same,GI50,LoVo,0.0312 µM
same,CC50,LoVo,16.7 µM
same,IC (TGI),LoVo,0.0867 µM
same,GI50,SK-MEL-28,0.00909 µM
same,CC50,SK-MEL-28,0.091 µM
same,IC (TGI),SK-MEL-28,0.0327 µM
same,GI50,IGROV-1,0.0106 µM
same,CC50,IGROV-1,0.384 µM
same,IC (TGI),IGROV-1,0.0496 µM
same,GI50,SK-BR-3,0.00583 µM
same,CC50,SK-BR-3,0.164 µM
same,IC (TGI),SK-BR-3,0.0242 µM
same,GI50,DU-145,0.0136 µM
same,CC50,DU-145,2.92 µM
same,IC (TGI),DU-145,0.067 µM
same,GI50,HeLa-APL,0.0241 µM
same,CC50,HeLa-APL,0.423 µM
same,IC (TGI),HeLa-APL,0.0732 µM
same,GI50,K-562,0.00311 µM
same,CC50,K-562,0.895 µM
same,IC (TGI),K-562,0.0138 µM
same,GI50,PANC-1,0.0229 µM
same,CC50,PANC-1,2.15 µM
same,IC (TGI),PANC-1,0.0827 µM
same,GI50,HeLa,0.00939 µM
same,CC50,HeLa,0.145 µM
same,IC (TGI),HeLa,0.0399 µM
same,GI50,LNCaP,0.00658 µM
same,CC50,LNCaP,0.0887 µM
same,IC (TGI),LNCaP,0.0202 µM
same,GI50,IGROV-ET,0.0685 µM
same,CC50,IGROV-ET,5.8 µM
same,IC (TGI),IGROV-ET,0.369 µM
same,GI50,LoVo-Dox,0.423 µM
same,CC50,LoVo-Dox,16.7 µM
same,IC (TGI),LoVo-Dox,1.15 µM
C=CCN1[C@@H]2c3c(cc(C)c(OC)c3O)C[C@H]1[C@H](C#N)N1C2[C@@H]2SC[C@]3(NCCc4cc(OC(=O)OC(C)(C)C)c(OC)cc43)C(=O)OC[C@H]1c1c3c(c(C)c(OC(C)=O)c12)OCO3 (stereo partly drawn) [compound 44],GI50,HT-29,0.0388 µM
same,CC50,HT-29,11.1 µM
same,IC (TGI),HT-29,1.54 µM
same,GI50,A-549,0.0274 µM
same,CC50,A-549,0.47 µM
same,IC (TGI),A-549,0.0567 µM
same,GI50,LoVo,0.0339 µM
same,CC50,LoVo,11.1 µM
same,IC (TGI),LoVo,0.143 µM
same,GI50,SK-MEL-28,0.0234 µM
same,CC50,SK-MEL-28,0.0901 µM
same,IC (TGI),SK-MEL-28,0.0459 µM
same,GI50,IGROV-1,0.0326 µM
same,CC50,IGROV-1,11.1 µM
same,IC (TGI),IGROV-1,0.078 µM
same,GI50,SK-BR-3,0.00327 µM
same,CC50,SK-BR-3,0.0761 µM
same,IC (TGI),SK-BR-3,0.0119 µM
same,GI50,DU-145,0.0234 µM
same,CC50,DU-145,11.1 µM
same,IC (TGI),DU-145,0.0719 µM
same,GI50,HeLa-APL,0.025 µM
same,CC50,HeLa-APL,0.352 µM
same,IC (TGI),HeLa-APL,0.0596 µM
same,GI50,K-562,0.00797 µM
same,CC50,K-562,11.1 µM
same,IC (TGI),K-562,0.0779 µM
same,GI50,PANC-1,0.0752 µM
same,CC50,PANC-1,11.1 µM
same,IC (TGI),PANC-1,0.344 µM
same,GI50,HeLa,0.0202 µM
same,CC50,HeLa,0.0875 µM
same,IC (TGI),HeLa,0.042 µM
same,GI50,LNCaP,0.00453 µM
same,CC50,LNCaP,0.048 µM
same,IC (TGI),LNCaP,0.0204 µM
same,GI50,IGROV-ET,0.0492 µM
same,CC50,IGROV-ET,11.1 µM
same,IC (TGI),IGROV-ET,0.443 µM
same,GI50,LoVo-Dox,0.297 µM
same,CC50,LoVo-Dox,11.1 µM
same,IC (TGI),LoVo-Dox,0.919 µM
C=CCN1[C@@H]2c3c(cc(C)c(OC)c3OC(=O)OC(C)(C)C)C[C@H]1[C@H](C#N)N1C2[C@@H]2SC[C@]3(NCCc4cc(OC(=O)OC(C)(C)C)c(OC)cc43)C(=O)OC[C@H]1c1c3c(c(C)c(OC(C)=O)c12)OCO3 (stereo partly drawn) [compound 45],GI50,HT-29,0.0836 µM
same,CC50,HT-29,10 µM
same,IC (TGI),HT-29,1.41 µM
same,GI50,A-549,0.162 µM
same,CC50,A-549,1.5 µM
same,IC (TGI),A-549,0.413 µM
same,GI50,LoVo,0.13 µM
same,CC50,LoVo,0.614 µM
same,IC (TGI),LoVo,0.283 µM
same,GI50,SK-MEL-28,0.117 µM
same,CC50,SK-MEL-28,0.689 µM
same,IC (TGI),SK-MEL-28,0.285 µM
same,GI50,IGROV-1,0.0569 µM
same,CC50,IGROV-1,10 µM
same,IC (TGI),IGROV-1,0.392 µM
same,GI50,SK-BR-3,0.00283 µM
same,CC50,SK-BR-3,0.133 µM
same,IC (TGI),SK-BR-3,0.00756 µM
same,GI50,DU-145,0.0359 µM
same,CC50,DU-145,10 µM
same,IC (TGI),DU-145,0.103 µM
same,GI50,HeLa-APL,0.0284 µM
same,CC50,HeLa-APL,0.783 µM
same,IC (TGI),HeLa-APL,0.121 µM
same,GI50,K-562,0.0176 µM
same,CC50,K-562,10 µM
same,IC (TGI),K-562,0.15 µM
same,GI50,PANC-1,0.229 µM
same,CC50,PANC-1,10 µM
same,IC (TGI),PANC-1,1.24 µM
same,GI50,HeLa,0.0164 µM
same,CC50,HeLa,0.0797 µM
same,IC (TGI),HeLa,0.0362 µM
same,GI50,LNCaP,0.00383 µM
same,CC50,LNCaP,0.0515 µM
same,IC (TGI),LNCaP,0.0173 µM
same,GI50,IGROV-ET,0.0865 µM
same,CC50,IGROV-ET,10 µM
same,IC (TGI),IGROV-ET,0.497 µM
same,GI50,LoVo-Dox,0.479 µM
same,CC50,LoVo-Dox,10 µM
same,IC (TGI),LoVo-Dox,3.14 µM
